Consider one compound from ChEMBL document CHEMBL5385913, “First-in-Class Dual EZH2-HSP90 Inhibitor Eliciting Striking Antiglioblastoma Activity In Vitro and In Vivo” (J Med Chem, 2024).

One data set concerns GBM. As to the kind of experiment: Antitumor activity against TMZ-resistant patient-derived human GBM cells xenografted in NOD.CB17-Prkdcscid/NCrCrl mouse assessed as reduction in tumor growth at 5 to 15 mg/kg, ip treated twice per week in presence of Tazemetostat. In kind it is functional, organism-based. The conditions noted are these: dose 5-15 mg/kg. A general note: Xenograft models place foreign cells or tissue in a host animal.

The nature of data set [1]: Toxicity in NOD.CB17-Prkdcscid/NCrCrl mouse xenografted with TMZ-resistant patient-derived human GBM cells at 5 to 15 mg/kg, ip treated twice per week in presence of Tazemetostat. In kind it is organism-based. The conditions noted are these: in vivo, dose 5-15 mg/kg.

Activity calls are given as the source filed them. The rule behind the calls is not given here.

Turning to `CC(C)c1cc(-c2n[nH]c(=O)n2-c2ccc3c(ccn3C)c2)c(O)cc1O` [GANETESPIB], the outcome in the data set on GBM was Active. Besides, in data set [1], the Activity result is given as “Toxic”.
